Data on 24 compounds can be found in patent US9427440B2, “Macrocyclic indole derivatives useful as hepatitis C virus inhibitors” (Janssen Sciences Ireland UC, priority 2008, dated 2016).

In data set [1] the test system is HCV type 1b replicon in Huh-7 luc/neo (Huh-Luc) cells. Briefly: HCV replicon assay (Huh-Luc, luciferase). The following applies: Hepatitis C virus, Huh-7, 72 h.
For a further data set, the target named is HCV NS5B 1bJ4 (Hepatitis C virus genotype 1b (strain HC-J4) (HCV), UniProt O92972). The experiment in a line: Inhibition assay with NS5b 1bJ4 (RdRp, SPA). The following applies: 50 nM NS5B 1bJ4 enzyme, radiolabeled GTP incorporation. The class given is biochemical.
Sequence of HCV NS5B 1bJ4 (O92972 whole entry, looked up): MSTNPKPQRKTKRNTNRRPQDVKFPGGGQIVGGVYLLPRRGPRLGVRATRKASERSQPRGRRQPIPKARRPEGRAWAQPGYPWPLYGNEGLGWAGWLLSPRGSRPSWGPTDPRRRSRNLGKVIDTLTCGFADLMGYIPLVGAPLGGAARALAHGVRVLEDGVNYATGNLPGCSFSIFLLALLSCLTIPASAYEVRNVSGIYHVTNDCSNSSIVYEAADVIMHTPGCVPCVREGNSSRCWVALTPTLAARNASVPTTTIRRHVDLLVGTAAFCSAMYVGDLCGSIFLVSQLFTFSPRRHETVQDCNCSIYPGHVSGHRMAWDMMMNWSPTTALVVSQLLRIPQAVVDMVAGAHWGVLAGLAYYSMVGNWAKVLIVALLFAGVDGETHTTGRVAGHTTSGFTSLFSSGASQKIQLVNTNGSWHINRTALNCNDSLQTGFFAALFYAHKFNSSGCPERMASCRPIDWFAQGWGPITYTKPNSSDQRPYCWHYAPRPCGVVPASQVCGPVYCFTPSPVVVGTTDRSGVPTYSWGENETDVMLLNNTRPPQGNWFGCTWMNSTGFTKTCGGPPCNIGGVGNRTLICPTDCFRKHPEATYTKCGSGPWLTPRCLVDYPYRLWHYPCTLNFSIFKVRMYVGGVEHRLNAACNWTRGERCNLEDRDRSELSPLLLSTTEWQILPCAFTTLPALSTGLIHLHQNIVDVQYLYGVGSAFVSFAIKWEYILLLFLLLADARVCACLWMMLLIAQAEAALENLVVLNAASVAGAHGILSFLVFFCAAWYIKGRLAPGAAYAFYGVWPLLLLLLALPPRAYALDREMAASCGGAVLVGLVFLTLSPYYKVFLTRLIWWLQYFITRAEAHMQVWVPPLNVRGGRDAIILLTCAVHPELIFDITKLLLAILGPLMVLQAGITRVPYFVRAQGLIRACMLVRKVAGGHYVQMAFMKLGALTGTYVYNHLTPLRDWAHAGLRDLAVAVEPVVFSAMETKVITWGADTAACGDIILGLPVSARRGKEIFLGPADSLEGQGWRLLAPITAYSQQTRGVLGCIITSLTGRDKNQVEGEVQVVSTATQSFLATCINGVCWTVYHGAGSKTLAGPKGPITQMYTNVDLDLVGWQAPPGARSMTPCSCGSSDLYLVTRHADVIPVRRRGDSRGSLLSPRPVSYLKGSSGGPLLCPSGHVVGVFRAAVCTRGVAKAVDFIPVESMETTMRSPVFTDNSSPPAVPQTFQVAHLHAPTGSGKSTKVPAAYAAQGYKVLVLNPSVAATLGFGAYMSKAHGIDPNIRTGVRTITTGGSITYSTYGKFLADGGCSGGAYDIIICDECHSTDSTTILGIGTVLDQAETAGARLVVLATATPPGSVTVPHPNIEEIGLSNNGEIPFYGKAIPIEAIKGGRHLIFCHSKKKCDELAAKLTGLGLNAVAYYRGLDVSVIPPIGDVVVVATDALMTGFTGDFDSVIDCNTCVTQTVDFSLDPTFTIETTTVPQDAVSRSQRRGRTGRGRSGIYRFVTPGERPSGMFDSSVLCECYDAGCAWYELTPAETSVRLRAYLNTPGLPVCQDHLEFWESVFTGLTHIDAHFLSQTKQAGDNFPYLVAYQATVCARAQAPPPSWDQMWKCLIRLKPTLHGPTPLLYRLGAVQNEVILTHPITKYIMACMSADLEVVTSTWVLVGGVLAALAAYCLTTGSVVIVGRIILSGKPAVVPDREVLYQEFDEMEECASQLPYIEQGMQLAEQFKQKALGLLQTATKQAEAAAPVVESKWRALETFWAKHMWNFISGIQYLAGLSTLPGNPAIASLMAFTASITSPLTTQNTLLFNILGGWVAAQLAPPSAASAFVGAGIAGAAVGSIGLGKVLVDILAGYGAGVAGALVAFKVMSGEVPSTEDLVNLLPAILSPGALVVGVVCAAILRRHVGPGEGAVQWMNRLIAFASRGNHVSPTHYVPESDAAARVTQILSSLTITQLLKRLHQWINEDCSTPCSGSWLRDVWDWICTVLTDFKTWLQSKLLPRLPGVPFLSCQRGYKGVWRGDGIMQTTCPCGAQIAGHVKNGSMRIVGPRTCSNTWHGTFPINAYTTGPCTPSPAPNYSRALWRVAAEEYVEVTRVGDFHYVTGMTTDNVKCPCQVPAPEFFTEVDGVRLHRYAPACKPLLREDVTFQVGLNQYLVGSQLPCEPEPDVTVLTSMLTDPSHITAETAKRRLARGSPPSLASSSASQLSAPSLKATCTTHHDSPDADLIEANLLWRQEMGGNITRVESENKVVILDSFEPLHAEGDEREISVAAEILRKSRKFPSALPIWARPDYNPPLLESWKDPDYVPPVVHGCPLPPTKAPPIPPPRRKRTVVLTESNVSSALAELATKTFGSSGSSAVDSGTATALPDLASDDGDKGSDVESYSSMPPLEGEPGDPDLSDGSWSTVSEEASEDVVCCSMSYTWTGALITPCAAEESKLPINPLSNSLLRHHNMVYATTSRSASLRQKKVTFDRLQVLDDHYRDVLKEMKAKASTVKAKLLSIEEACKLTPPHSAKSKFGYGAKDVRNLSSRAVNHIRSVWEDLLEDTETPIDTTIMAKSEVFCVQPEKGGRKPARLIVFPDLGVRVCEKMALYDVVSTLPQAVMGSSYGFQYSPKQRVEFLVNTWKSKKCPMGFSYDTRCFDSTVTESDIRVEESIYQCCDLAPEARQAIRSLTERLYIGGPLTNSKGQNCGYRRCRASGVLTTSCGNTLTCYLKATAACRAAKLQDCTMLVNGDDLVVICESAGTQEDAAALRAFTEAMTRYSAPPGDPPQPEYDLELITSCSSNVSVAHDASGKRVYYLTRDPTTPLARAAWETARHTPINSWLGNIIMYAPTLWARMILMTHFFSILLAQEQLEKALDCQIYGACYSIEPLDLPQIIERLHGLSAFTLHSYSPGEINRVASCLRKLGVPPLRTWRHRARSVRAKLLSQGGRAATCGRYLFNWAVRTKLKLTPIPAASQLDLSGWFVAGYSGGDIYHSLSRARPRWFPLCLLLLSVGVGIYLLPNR
The target of another data set is HCV NS5B con1b (Hepatitis C virus genotype 1b (isolate Con1) (HCV), UniProt Q9WMX2). Briefly: RNA-dependent RNA polymerase assay NS5B con1b. The following applies: read-out: IC50 Con1b; 20 nM Con1b NS5B enzyme, primer-dependent transcription assay.
Data set [2] has as its target T1, NS5B 4a isolate 1 (Hepatitis C virus genotype 4a, UniProt O39929).
Data set [3] addresses T1, NS5B 4a isolate 1. The experiment in a line: biochemical.
Data set [4] has as its target T2, NS5B 4a isolate 2 (Hepatitis C virus genotype 4a, UniProt O39929).
Data set [5] has as its target T3, NS5B 6a isolate 5 (Hepatitis C virus genotype 6a, UniProt O39927).
The target in data set [6] is T3, NS5B 6a isolate 5. The experiment in a line: biochemical.
The target of another data set is NS5B 1b isolate 3 (Hepatitis C virus genotype 1b, UniProt Q9WMX2).
The target in a further data set is NS5B 1a isolate 3 (Hepatitis C virus genotype 1a, UniProt P27958).
In data set [7] the target is T4, NS5B 4a isolate 3 (Hepatitis C virus genotype 4a, UniProt O39929).
In the next data set the target is NS5B 1b isolate 2 (Hepatitis C virus genotype 1b, UniProt Q9WMX2).
The target of a further data set is NS5B 1a isolate 4 (Hepatitis C virus genotype 1a, UniProt P27958).
The target in data set [8] is T2, NS5B 4a isolate 2. Briefly: biochemical.
The target of a further data set is NS5B 1a isolate 1 (Hepatitis C virus genotype 1a, UniProt P27958).
In a further data set the target is NS5B 2b isolate 2 (Hepatitis C virus genotype 2b, UniProt P26661).
Data set [9] addresses T4, NS5B 4a isolate 3. Briefly: biochemical.
A further data set has as its target NS5B 1a isolate 2 (Hepatitis C virus genotype 1a, UniProt P27958).
The next data set deals with NS5B 5a isolate 4 (Hepatitis C virus genotype 5a, UniProt O39928). The experiment in a line: Enzyme binding affinity, SPR (Biacore). Further details: species or system HCV. Background: In SPR one partner is held on a chip, and binding of the other changes the refractive index at the surface.

Protocol for HCV NS5B con1b: Fifty-percent inhibitory concentrations (Table 1: IC50 con1b) were determined according to the method as described previously (Pauwels et al, 2007, J Virol 81:6909-19) using a primer-dependent transcription assay. […] 600 nM GTP and 0.13 μCi of [^3H]GTP was then added to initiate the 40-μl reaction mixture, which was then incubated at room temperature for 2 h before the reaction was stopped by addition of 40-μl streptavidin-coated SPA beads.

With `COc1ccc2c(c1)C=C1Cn3c-2c(C2CCCCC2)c2ccc(cc23)C(=O)NS(=O)(=O)N(C)CCN2CCN(CC2)C1=O` [Compound 15], it took 180 nM to reach a half-maximal effect in data set [1] (EC50). In [1], `COc1ccc2c(c1)C=C1Cn3c-2c(C2CCCCC2)c2ccc(cc23)C(=O)NS(=O)(=O)N(C)CCCCCNC1=O` [Compound 26] returned a concentration giving a half-maximal response (EC50) of 130 nM.

In the case of `COc1ccc2c(c1)C(C)=C1Cn3c-2c(C2CCCCC2)c2ccc(cc23)C(=O)NS(=O)(=O)N(C)CCOCCN(C)C1=O` [Compound 16], it took 78 nM to reach a half-maximal effect in data set [1] (EC50). `COc1ccc2c(c1)C1CC13Cn1c-2c(C2CCCCC2)c2ccc(cc21)C(=O)NS(=O)(=O)N(C)CCCCNC3=O` (stereo not shown) [Compound 10, 8-cyclohexyl-11-methoxy-16-methyl-1,12b-dihydro-5,1a-(methanoiminothioiminobutanoimino)cyclopropa[d]indolo[2,1-a][2]benzazepine-13,22(2H)-dione 15,15-dioxide]: in data set [1], the half-maximal effective concentration (EC50) was found to be 60 nM. On HCV NS5B 1bJ4, the IC50 was found to be 280 nM. On to `CN1CCOCCN(C)S(=O)(=O)NC(=O)c2ccc3c(C4CCCCC4)c4n(c3c2)CC(=Cc2cc(F)ccc2-4)C1=O` [Compound 19], for which a half-maximal effect in [1] (EC50) was put at 72 nM. The IC50 on HCV NS5B con1b turned out to be 31 nM. With `CN1CCOCCN(C)S(=O)(=O)NC(=O)c2ccc3c(C4CCCCC4)c4n(c3c2)CC(=Cc2cc(Cl)ccc2-4)C1=O` [Compound 21], it took 280 nM to reach a half-maximal effect in data set [1] (EC50).

`COc1ccc2c(c1)C=C1Cn3c-2c(C2CCCCC2)c2ccc(cc23)C(=O)NS(=O)(=O)N2CCN(CCNC1=O)CC2` [Compound 5] displayed an EC50 in data set [1] of 920 nM. Moreover, the half-maximal inhibitory concentration (IC50) against HCV NS5B 1bJ4 is 290 nM. As to `COc1ccc2c(c1)[C@@H]1C[C@]13Cn1c-2c(C2CCCCC2)c2ccc(cc21)C(=O)NS(=O)(=O)N(C)CCOCCN(C)C3=O` [Compound 8, (1aR,12bS)-8-cyclohexyl-11-methoxy-16,22-dimethyl-1,12b-dihydro-5,1a-(methanoiminothioiminoethanooxyethanoiminomethano)cyclopropa[d]-indolo[2,1-a][2]benzazepine-13,23(2H)-dione 15,15-dioxide], the midpoint of the response in [1], the EC50, lay at 40 nM. With `COc1ccc2c(c1)C=C1Cn3c-2c(C2CCCCC2)c2ccc(cc23)C(=O)NS(=O)(=O)N(C)CC=CCNC1=O` [Compound 13], the 50% effective concentration (EC50) in [1] was 390 nM. Further, at HCV NS5B 1bJ4, half-maximal inhibition (IC50) required 190 nM. The compound `CN1CCCCCNC(=O)C2=Cc3ccc(Cl)cc3-c3c(C4CCCCC4)c4ccc(cc4n3C2)C(=O)NS1(=O)=O` [Compound 27] registered an EC50 in [1] of 10200 nM. `COc1ccc2c(c1)C1CC13Cn1c-2c(C2CCCCC2)c2ccc(cc21)C(=O)NS(=O)(=O)N(C)C/C=C/CCNC3=O` (stereo not shown) [Compound 12, 8-cyclohexyl-11-methoxy-16-methyl-1,12b-dihydro-5,1a-(methaniminothio-iminopent[2]enoiminomethano)cyclopropa[d]indolo[2,1-a][2]benzazepine-13,23(2H)-dione 15,15-dioxide] returned an EC50 in data set [1] of 290 nM. The compound also yielded a concentration for half-maximal inhibition (IC50) on HCV NS5B 1bJ4 of 930 nM. As to `CC1=C2Cn3c(c(C4CCCCC4)c4ccc(cc43)C(=O)NS(=O)(=O)N(C)CCOCCN(C)C2=O)-c2ccc(F)cc21` [Compound 20], in [1], a half-maximal effect (EC50) was put at 81 nM. Also, the IC50 at HCV NS5B con1b came out at 38 nM. On to `COc1ccc2c(c1)C=C1Cn3c-2c(C2CCCCC2)c2ccc(cc23)C(=O)NS(=O)(=O)N(C(C)C)CCCCN(C)C1=O` [Compound 28], for which the concentration giving a half-maximal response (EC50) in data set [1] was 330 nM. `COc1ccc2c(c1)C=C1Cn3c-2c(C2CCCCC2)c2ccc(cc23)C(=O)NS(=O)(=O)N(C)CCCCN(C)C1=O` [Compound 18] yielded an EC50 in data set [1] of 79 nM. For `COc1ccc2c(c1)C=C1Cn3c-2c(C2CCCCC2)c2ccc(cc23)C(=O)NS(=O)(=O)N(C)CCN(C)CCNC1=O` [Compound 6], the half-maximal effective concentration (EC50) in data set [1] amounted to 550 nM. In data set [1], `CN1CCCCN(C)S(=O)(=O)NC(=O)c2ccc3c(C4CCCCC4)c4n(c3c2)CC(=Cc2ccc(Cl)cc2-4)C1=O` [Compound 24] came in with a concentration giving a half-maximal response (EC50) of 14500 nM. Same read-out and setting: in the case of `COc1ccc2c(c1)C=C1Cn3c-2c(C2CCCCC2)c2ccc(cc23)C(=O)NS(=O)(=O)N(C)CCCCNC1=O` [Compound 38] it was 912 nM.

In data set [1], `COc1ccc2c(c1)C=C1Cn3c-2c(C2CCCCC2)c2ccc(cc23)C(=O)NS(=O)(=O)N(C)CCCCCCN(C)C1=O` [Compound 22] returned an EC50 of 160 nM. Still for that read-out and setting: in the case of `COc1ccc2c(c1)[C@H]1C[C@@]13Cn1c-2c(C2CCCCC2)c2ccc(cc21)C(=O)NS(=O)(=O)N(C)CCOCCN(C)C3=O` [Compound 9, (1 aS,12bR)-8-cyclohexyl-11-methoxy-16,22-dimethyl-1,12b-dihydro-5,1a-(methanoiminothioiminoethanooxyethanoiminomethano)cyclopropa[d]indolo-[2,1-a][2]benzazepine-13,23(2H)-dione 15,15-dioxide] it was 800 nM; in that of `COc1ccc2c(c1)C=C1Cn3c-2c(C2CCCCC2)c2ccc(cc23)C(=O)NS(=O)(=O)NCCN(C)CCNC1=O` [Compound 23], 470 nM. On to `COc1ccc2c(c1)C=C1Cn3c-2c(C2CCCCC2)c2ccc(cc23)C(=O)NS(=O)(=O)N(C)CCOCCN(C)C1=O` [Compound 1], for which the t1/2 on NS5B 4a isolate 1 [2] amounted to 26.7 min; at NS5B 4a isolate 2 [4], 30.1 min; at NS5B 6a isolate 5 [5], 7.3 min; at NS5B 1b isolate 3, 96.4 min; on NS5B 1a isolate 3, 19.2 min; on NS5B 4a isolate 3 [7] it was 19.1 min. Also, the t1/2 at NS5B 1b isolate 2 worked out at 172.1 min; at NS5B 1a isolate 4 it was 14.9 min; on NS5B 1a isolate 1, 24.2 min; on NS5B 2b isolate 2 it was 1.0 min; on NS5B 1a isolate 2, 31.3 min. Also, the Kd on NS5B 4a isolate 1 [3] was 2.1 nM; at NS5B 6a isolate 5 [6] it was 32 nM; on NS5B 4a isolate 2 [8], 1.4 nM; at NS5B 4a isolate 3 [9] it was 3.4 nM; on NS5B 5a isolate 4, 22 nM. As to `COc1ccc2c(c1)C(C)=C1Cn3c-2c(C2CCCCC2)c2ccc(cc23)C(=O)NS(=O)(=O)N(C)CCCCN(C)C1=O` [Compound 17], a half-maximal effect in [1] (EC50) was put at 170 nM. Consider `COc1ccc2c(c1)C1CC13Cn1c-2c(C2CCCCC2)c2ccc(cc21)C(=O)NS(=O)(=O)N(C)CCN1CCN(CC1)C3=O` (stereo not shown) [Compound 11, 31-cyclohexyl-8-methoxy-22-methyl-21-thia-1,13,20,22,25-pentaazaheptacyclo-[23.2.2.1^3,13.1^12,15.1^14,18.0^3,5.0^6,11]dotriaconta-6,8,10,12(31),14(30),15,17-heptaene-2,19-dione 21,21-dioxide], for which the midpoint of the response in data set [1], the EC50, lay at 55 nM. Further, the half-inhibitory concentration (IC50) at HCV NS5B 1bJ4 is 220 nM. Take `COc1ccc2c(c1)C=C1Cn3c-2c(C2CCCCC2)c2ccc(cc23)C(=O)NS(=O)(=O)NCCCCN(C)C1=O` [Compound 25]: in [1], the midpoint of the response, the EC50, lay at 550 nM.

The EC50 is the midpoint of the concentration-response curve. High values mean lower potency in that assay, low ones higher potency in that assay. Broadly, the IC50 is the concentration that gives 50% inhibition. For orientation: Kd means the constant that tells how readily two partners part at equilibrium.
